Data reported in PMC5407577, “Functional and genetic evidence that nucleoside transport is highly conserved in Leishmania species: Implications for pyrimidine-based chemotherapy” (International Journal for Parasitology: Drugs and Drug …, 2017).
Where two headings read alike, the source gives them in different places.

Legend:
L. major promastigotes = experiment: total [3H]-uridine uptake by L. major promastigotes; format: cell-based, Leishmania major; conditions: Leishmania major
Protocol: (§1) Using the standard uptake technique as described for T. brucei and Leishmania species ([Wallace et al., 2002], [Al-Salabi and De Koning, 2005], [Gudin et al., 2006]), the dose- or time-dependent uptake of radiolabeled permeants was investigated.
(§2) Briefly, cells in the mid-to-late logarithmic stage of growth were harvested by centrifugation for 10 min at 1500×g. The cells were washed twice with transport assay buffer (AB: 33 mM HEPES, 98 mM NaCl, 4.6 mM KCl, 0.55 mM CaCl2, 0.07 mM MgSO4, 5.8 mM NaH2PO4, 0.3 mM MgCl2, 23 mM NaHCO3, 14 mM glucose, pH 7.3), resuspended at a density of 10^8 cells ml^−1 in AB, and left for 20–30 min at room temperature to recover from centrifugation stress. One hundred microliters of cell suspension was incubated at ambient temperature for a predetermined time with 100 μl radiolabeled test compound, in the presence or absence of unlabeled substrate or other competitive inhibitors. The incubation was terminated by the addition of ice-cold stop solution (AB containing saturating levels, usually 10 mM, of unlabeled permeant) and centrifugation through oil for 1 min at 13,000 × g. […] Radioactivity was determined by liquid scintillation counting in a Beckman LS6000 TA scintillation counter. Saturation data, inhibition data, and time courses were plotted to equations for linear or non-linear regression (hyperbolic or sigmoid curves), as appropriate. All experiments were performed in triplicate and on at least three independent occasions.

LmajUUT1 = experiment: [3H]-uridine uptake by L. major promastigotes, high-affinity uracil-sensitive component; format: cell-based, Leishmania major; conditions: inhibition of 0.25 μM [3H]-uridine uptake
Protocol: as §1, §2

LmajNT1 [1] = experiment: [3H]-uridine uptake by L. major promastigotes, low-affinity component; format: cell-based, Leishmania major; conditions: inhibition of 0.25 μM [3H]-uridine uptake
Protocol: as §1, §2

LmajNT1 [2] = experiment: [3H]-thymidine uptake by L. major promastigotes; format: cell-based, Leishmania major; conditions: inhibition of 0.25 μM [3H]-thymidine uptake (total LmajNT1.1 + LmajNT1.2), 5 min
Protocol: as §1, §2
Subsequent experiments were performed with a 5 min incubation time.

LmexNT1 [3] = experiment: [3H]-adenosine uptake by L. mexicana promastigotes; format: cell-based, Leishmania mexicana
Description: Using the standard uptake technique as described for T. brucei and Leishmania species ([Wallace et al., 2002], [Al-Salabi and De Koning, 2005], [Gudin et al., 2006]), the dose- or time-dependent uptake of radiolabeled permeants was investigated. The following radiolabels and specific activities were used: [^3H]-thymidine (Perkin Elmer; 56.6 Ci/mmol); [^3H]-adenosine (American Radiolabeled Chemicals UK; 40 Ci/mmol); [^3H]-uridine (American Radiolabeled Chemicals UK; 30 Ci/mmol); [^3H]-uracil (Perkin Elmer; 24.8 Ci/mmol); [^3H]-inosine (American Radiolabeled Chemicals UK; 20 Ci/mmol); [^3H]-5-fluorouracil (Moravek; 20 Ci/mmol).
as §2
We next investigated the transport of [^3H]-adenosine in L. mexicana promastigotes, which according to the efficient inhibition of [^3H]-thymidine by adenosine, should be taken up with high affinity.

LmexNT1 [4] = format: cell-based, Leishmania mexicana; conditions: inhibition of 0.25 μM [3H]-uridine uptake in the presence of 1 mM uracil
Protocol: as §1, §2

LmexUU1 = format: cell-based, Leishmania mexicana; conditions: inhibition of [3H]-uracil uptake, 4 min
Protocol: as §1, §2

LmexNT1 [5] = format: cell-based, Leishmania mexicana; conditions: inhibition of 1 μM [3H]-thymidine uptake, 20 s
Protocol: as §1, §2
L. donovani is known to express one pyrimidine nucleoside transporter, LdNT1, which also transports adenosine ([Vasudevan et al., 1998], [De Koning et al., 2005]). In order to investigate whether this model held true for L. mexicana, the uptake of [^3H]-thymidine was studied. […] Care was taken throughout this study that whenever inhibition constants (Ki) or Michaelis-Menten constants (Km) were determined the conditions used had been verified to be well within the linear range of uptake.

LmajNT2 = experiment: [3H]-inosine transport by T. brucei B48 cells expressing LmajNT2; format: cell-based, Leishmania major
Protocol: (§3) Plasmid construction and transfection was performed according to [Munday et al. (2013)]. The nucleoside transporter genes were isolated from L. mexicana and L. major. […] The primers used in this study (Table S2) were designed to flank the gene of interest, one complementary to the sequence upstream of the 5′ end and the other complementary to the sequence downstream of the 3′ end. All of the nucleoside transporters genes were PCR-amplified from genomic DNA of each strain using the high-fidelity proof-reading polymerase Phusion (New England Biolabs) and cloned into the pGEMTeasy (Promega) vector prior to Sanger sequencing (Source BioScience, Glasgow, UK). […] After confirming the identity of each gene, the nucleoside transporter genes (LmajNT1A, LmajNT1B, LmajNT2, LmexNT1A, LmexNT1B, and LmexNT2) were ligated into the expression vector pHD1336 ([Biebinger et al., 1997]) and then were linearized with NotI digestion. All genes were verified by Sanger sequencing, prior to transfection into T. b. brucei clone B48. B48 parasites (1 × 10^7 cells) were washed into Human T Cell buffer for transfection using the desired cassette with an Amaxa Nucleofector using program X-001. Cells were transferred into pre-warmed HMI-9 medium and allowed to recover for 8–16 h at 37 °C and 5% CO2. Following recovery, transfectants were grown and cloned in selective medium containing 5 μg ml^−1 blasticidin S using limiting dilution.
as §1
(§4) Briefly, cells in the mid-to-late logarithmic stage of growth were harvested by centrifugation for 10 min at 1500×g. […] Radioactivity was determined by liquid scintillation counting in a Beckman LS6000 TA scintillation counter. […]

LmexNT2 = experiment: [3H]-inosine transport by T. brucei B48 cells expressing LmexNT2; format: cell-based, Leishmania mexicana
Protocol: as §3, with “Cells were transferred into pre-warmed HMI-9 medium and allowed to recover for 8–16 h at 37 °C and 5% CO2. Following recovery, transfectants were grown and cloned in selective medium containing 5 μg ml^−1 blasticidin S using limiting dilution.” left out
as §4

T. b. brucei strain B48 [6] = experiment: microbe, parasite or virus in culture; format: cell-based; conditions: Trypanosoma brucei, read-out: inhibition of 0.5 μM [3H]-uridine uptake, 250 μM inhibitor
Protocol: as §1
as §2, with “All experiments were performed in triplicate and on at least three independent occasions.” left out

T. b. brucei strain B48 [7] = experiment: [3H]-inosine uptake in non-transfected T. brucei B48; format: cell-based, Trypanosoma brucei brucei
Protocol: as §1, §2

[8] = inhibition of 0.05 μM [3H]-adenosine uptake, read-out: Ki
[9] = 50 nM [3H]-inosine + 250 μM adenosine

Compound | inhibition at 0.25 µM (L. major promastigotes; 3 h, read-out: partial (maximal) inhibition of 0.25 μM [3H]-uridine transport) | Ki (LmajUUT1) | Ki (LmajNT1 [1]) | Ki (LmajNT1 [2]) | Ki (LmexNT1 [3]; [8]) | Ki (LmexNT1 [4]) | Ki (LmexUU1) | inhibition at 100 µM (L. major promastigotes; 20 min, read-out: inhibition of 0.25 μM uridine transport in time course over 20 min, 100 μM inhibitor, n = 2) | inhibition at 100 µM (L. major promastigotes; at 100 μM inhibitor, read-out: inhibition of 0.25 μM [3H]-uridine transport) | Ki (LmexNT1 [5]) | uptake rate in the presence of adenosine (LmajNT2; [9]) | inhibition of 50 nM [3H]-inosine transport (LmajNT2; 1 mM inosine) | rate of transport in the presence of adenosine (LmexNT2; [9]) | inhibition of 50 nM [3H]-inosine transport (LmexNT2; 1 mM inosine) | Ki (LmexNT1 [3]; inhibition of [3H]-adenosine uptake, read-out: affinity for inhibition of adenosine transport (Ki)) | inhibition at 250 µM (T. b. brucei strain B48 [6]) | rate of uptake (T. b. brucei strain B48 [7]; 50 nM [3H]-inosine) | inhibition of 50 nM [3H]-inosine transport (T. b. brucei strain B48 [7]; 250 μM adenosine or 1 mM unlabeled inosine (Fig. 7B))
Nc1ncnc2[nH]cnc12 [adenine] | 62.7 ± 1.7% | 0.00514 ± 0.00225 mM | > 1 mM | > 1 mM | > 1 mM | > 1 mM | 0.288 ± 0.067 mM | – | – | – | – | – | – | – | – | – | – | –
O=c1[nH]cnc2c1ncn2[C@@H]1O[C@H](CO)[C@@H](O)[C@H]1O [inosine] | – | 0.0005 ± 0.00016 mM | > 1 mM | 1.99 ± 3.05 mM | 1.63 ± 0.134 mM | 1.01 ± 0.19 mM | – | 83.5% | 70.8 ± 4.5% | 0.64 ± 0.034 mM | 0.0023 ± 0.0001 pmol(10^7 cells)^−1s^−1 | 99.8% | 0.0023 ± 0.0003 pmol(10^7 cells)^−1s^−1 | 99.9% | 1.6 ± 0.1 mM | 24.3% | 0.0049 ± 0.0002 pmol(10^7 cells)s^−1 | fully inhibited
